Experimental data: PubChem BioAssay AID1996
≈ marks a conversion by molar mass, not a printed value.

conditions: buffer; pH 7.4; 200.0 µM

Row | Structure (SMILES) | solubility kinetic [µg/mL]
1 | CCN(c1ccccc1)S(=O)(=O)c1ccc(C(=O)NCc2ccco2)cc1 | 32 (≈ 83.2 µM)
2 | CCC(O)c1nc2ccccc2n1CCc1ccccc1 (stereo not given) | 17.1 (≈ 61 µM)
3 | COc1ccc(Cl)cc1NC(=O)c1noc(C)c1[N+](=O)[O-] | 9 (≈ 28.9 µM)
4 | CC(=O)c1cccc(OCC(O)CNCCOc2ccc(C)cc2)c1 (stereo not given) | 47.6 (≈ 139 µM)
5 | COc1cc(C(=S)N2CCOCC2)cc(OC)c1OC | > 44.6
6 | C=CCn1c(O)c(C(C)=Nc2cccc(C(=O)O)c2)c(=O)[nH]c1=O | > 49.4
7 | NS(=O)(=O)c1ccc(CCNC(=O)COC(=O)CCc2c[nH]c3ccccc23)cc1 | > 64.4
8 | CCN1C(=O)CC(NCc2ccc(S(N)(=O)=O)cc2)C1=O (stereo not given) | > 46.7
9 | Cc1csc(=O)n1CCC(=O)OCc1nnc(-c2ccccc2Cl)o1 | > 57
10 | O=C(Cc1ccc(F)cc1)N1CCOCC1 | > 33.5
11 | Cc1ccc(C(=O)NS(=O)(=O)c2ccc(C)cc2)cc1 | > 43.4
12 | CCN(C(=O)COC(=O)CN1C(=O)c2ccccc2C1=O)c1ccccc1 | > 55
13 | COc1ccc(N(C(=O)C(C)C)S(=O)(=O)c2ccc3ccccc3c2)cc1 | < 0.8
14 | O=C(CS(=O)CC(=O)Nc1cccnc1)Nc1ccc(F)cc1 (stereo not given) | > 50.3
15 | COc1ccc(NC(=O)C2=CN3CCS(=O)(=O)N=C3C=C2)c(OC)c1 | 37.8 (≈ 104 µM)
16 | O=C(COC(=O)c1ccc[nH]c1=O)Nc1ccc2c(c1)OC(F)(F)O2 | > 52.8
17 | COc1cc(NC(=O)Nc2cc(C)on2)cc(OC)c1OC | 37.8 (≈ 123 µM)
18 | O=C(COc1ccc2ccccc2c1Br)N1CCCC1 | 45.4 (≈ 136 µM)
19 | O=C(Nc1ccc(C(=O)Nc2ccccc2Cl)cc1)c1cccnc1 | 2.3 (≈ 6.54 µM)
20 | COc1cc(C2(c3ccc(O)c(OC)c3)C(=O)N(C)c3ccc(C)cc32)ccc1O | 51.4 (≈ 127 µM)

Row | Structure (SMILES) | solubility kinetic [µg/mL]
21 | COc1ccc(C(=O)OC(C)CN2CCN(C)CC2)cc1.Cl (stereo not given) | > 49.3
22 | O=C(OCCCN1CCOCC1)c1ccc(O)c(O)c1 | > 42.2
23 | Cc1c(Cl)cccc1NC(=O)CNC(=O)c1ccc2c(c1)OCCO2 | 18 (≈ 49.9 µM)
24 | CCCCn1c(Nc2ccc(OC)cc2)nc2ccccc21 | 0.6 (≈ 2.03 µM)
25 | CN=C(C)/C(C(=O)OC)=C(/O)c1ccc(Cl)cc1Cl | 34 (≈ 113 µM)
26 | CC(C)(C)S(=O)(=O)c1cnc(-c2ccc(Cl)cc2)nc1N | < 0.2
27 | CCC(=O)Nc1ccc(OCC2CCCO2)cc1 (stereo not given) | 35.6 (≈ 143 µM)
28 | NC(=S)Nc1ccc(C(F)(F)F)cc1Cl | 33.5 (≈ 132 µM)
29 | O=C(O)CNS(=O)(=O)c1cccc(Cl)c1 | > 37.5
30 | N/C(=N\OC(=O)c1ccc(Cl)cc1[N+](=O)[O-])c1cccnc1 | 12.5 (≈ 39 µM)
31 | CCC(CO)NCc1ccccc1OC(C)C.Cl (stereo not given) | > 41.1
32 | CCOC1=CC(=O)N(Cc2ccccc2)C1 | > 32.6
33 | COc1ccc(NC(=O)Nc2c[nH]c(=O)[nH]c2=O)cc1 | 10 (≈ 36.2 µM)
34 | O=C(COC(=O)COc1ccc(Cl)cc1)NC1CCCCCC1 | 8.1 (≈ 23.8 µM)
35 | O=c1[nH]c2ccc(S(=O)(=O)Nc3ccccc3O)cc2[nH]1 | > 45.8
36 | CC(=O)NC(Cc1ccccc1)Cc1ccccc1 | > 38
37 | COc1cccc(C(=O)NC2CCCc3ccccc32)c1OC (stereo not given) | 31.6 (≈ 101 µM)
38 | COc1cc(OC)cc(C(=O)NCC(=O)OC2CCCCC2=O)c1 (stereo not given) | > 50.3
39 | CC(=O)N(c1cccc(Br)c1)c1nc(C)cc(C)c1C#N | > 51.6
40 | COc1cc2sc(NC(=O)c3ccco3)nc2cc1Cl | < 0.3

Row | Structure (SMILES) | solubility kinetic [µg/mL]
41 | Cc1cc(C)nc(SCc2ccc(Br)cc2)n1 | 1.5 (≈ 4.85 µM)
42 | Cc1ccc(C)c(S(=O)(=O)c2c(C)cc(C)[nH]c2=O)c1 | 28.9 (≈ 99.2 µM)
43 | COc1cc(CN2CCCN(C)CC2)cc([N+](=O)[O-])c1O | 33.9 (≈ 115 µM)
44 | Cc1ccc(S(N)(=O)=O)cc1NC(=O)c1ccc2c3c(cccc13)CC2 | 3.1 (≈ 8.46 µM)
45 | COc1cc(/C=C/C(=O)Nc2ccc(OC)c(S(=O)(=O)N3CCOCC3)c2)ccc1OC(F)F | 2.6 (≈ 5.22 µM)
46 | CC(C)CC(=O)NC(C)C(c1cccs1)N1CCOCC1 (stereo not given) | 45.4 (≈ 146 µM)
47 | CCOc1ccc(CCNC(=O)C2(c3ccccc3)CC2)cc1OCC | > 53
48 | CC1(C)OC(=O)C(=CNc2ccccn2)C(=O)O1 | 28.5 (≈ 115 µM)
49 | O=S(=O)(NCc1cccs1)c1ccccc1Cl | > 43.2
50 | Cc1ccc2cc(NC(=O)c3ccc(C(C)(C)C)cc3)ccc2n1 | < 0.3
51 | COCC(C)NC(=O)c1cc2cc(OC)ccc2[nH]1 (stereo not given) | 29.7 (≈ 113 µM)
52 | COCCN(C(=O)c1ccco1)c1nc(-c2ccccc2)cs1 | 5.7 (≈ 17.4 µM)
53 | Cn1ccnc1SCC(=O)Nc1ccc2c(c1)OCO2 | > 43.7
54 | CN(Cc1cccc(F)c1)CC(O)COCc1ccccc1Cl (stereo not given) | 44.9 (≈ 133 µM)
55 | Cc1onc(-c2c(Cl)cccc2Cl)c1C(O)c1ccccc1 (stereo not given) | > 50.1
56 | Cc1ccc([N+](=O)[O-])cc1S(=O)(=O)Nc1cccc(S(=O)(=O)NC2=NCCC2)c1 | > 65.8
57 | O=C(Cc1ccc(Cl)cc1Cl)NCc1cccnc1 | > 44.3
58 | O=[N+]([O-])c1c(Nc2ccc(Br)cc2)ccc2nonc12 | < 0.2
59 | CCOc1cccc(/C=C/c2ccc3cccc(O)c3n2)c1O | < 0.7
60 | CC(=O)c1c(C)[nH]c(C(=O)COC(=O)C2(C)CC2(Cl)Cl)c1C (stereo not given) | 11.9 (≈ 34.4 µM)
